# Measured values from PubChem BioAssay (NCI).
# Several values for one entry are separate records, joined by “and”; a condition that tells them apart may be missing. Equal values may be shown once.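 A five-concentration, 48-hour dose response in 96-well plates underlies each endpoint, interpolated linearly between surrounding concentrations. Abbreviation: GI50, concentration required for 50% inhibition of growth. TGI: concentration producing complete growth inhibition.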
# Legend:
# Assay in all cases: NCI-60 cell line screen, 48 h
# [1] = test system: CCRF-CEM leukemia
# [2] = test system: LOX IMVI melanoma
# [3] = test system: MDA-MB-231 breast
# [4] = test system: NCI-H23 lung
# [5] = test system: SW-620 colon
# [6] = test system: DU-145 prostate
# [7] = test system: IGROV1 ovarian
# [8] = test system: A549 NSCLC
# [9] = test system: SF-539 CNS
# [10] = test system: UACC-257 melanoma
SMILES,GI50 [1],TGI [1],GI50 [2],TGI [2],GI50 [3],TGI [3],GI50 [4],TGI [4],GI50 [5],TGI [5],GI50 [6],TGI [6],GI50 [7],TGI [7],GI50 [8],TGI [8],GI50 [9],TGI [9],GI50 [10],TGI [10]
COc1ccc(C(=O)COc2cccc(/C=C3\CSc4ccccc4C3=O)c2)cc1,0.313 µM,1.09 µM,1.54 µM,2.98 µM,4.33 µM,12.5 µM,2.14 µM,4.78 µM,0.262 µM,0.707 µM,2.53 µM,5.4 µM,1.49 µM,3.35 µM,9.04 µM,39.5 µM,2.95 µM,8.51 µM,2.49 µM,6.12 µM
CN(CC(=O)O)c1ccc(/C=C/c2ccnc3ccccc23)cc1,,72.5 µM,,45.7 µM,,> 100 µM,,> 100 µM,,> 100 µM,,> 100 µM,,39.4 µM,,61.4 µM,,> 100 µM,,65.4 µM
COc1ccc(-c2nnc(SCC(=O)Nc3ccc(/C(C)=N\O)cc3)n2-c2ccccc2)cc1OC,> 100 µM,> 100 µM,> 100 µM,> 100 µM,4.26 µM,23.8 µM,12.9 µM,> 100 µM,> 100 µM,> 100 µM,24.9 µM,> 100 µM,3.74 µM,29.4 µM,9.73 µM,> 100 µM,4.77 µM,38.9 µM,> 100 µM,> 100 µM
COC1(O)C(=O)c2ccccc2OC1(OC)c1ccccc1 (stereo not drawn),,> 100 µM,,> 100 µM,,> 100 µM,,> 100 µM,,> 100 µM,,> 100 µM,,> 100 µM,,> 100 µM,,> 100 µM,,> 100 µM
O=C1/C(=C/c2ccccc2F)CNC/C1=C\c1ccccc1F,0.193 µM and 0.314 µM,3.38 µM and 1.61 µM,0.318 µM and 0.186 µM,1.22 µM and 0.461 µM,1.18 µM and 0.653 µM,3.17 µM and 2.36 µM,0.693 µM and 0.838 µM,1.81 µM and 3.27 µM,0.236 µM and 0.245 µM,3.49 µM and 0.647 µM,0.642 µM and 0.71 µM,2.05 µM and 2.01 µM,0.809 µM and 1.2 µM,2.49 µM and 3.19 µM,1.81 µM and 1.27 µM,9.35 µM and 5.59 µM,0.269 µM and 0.87 µM,0.828 µM and 2.99 µM,1.62 µM and 1.73 µM,4.16 µM and 3.95 µM
COc1ccc(-c2cnnn2-c2cc(OC)c3c(c2)OCO3)cc1,0.148 µM,> 100 µM,0.491 µM,> 100 µM,0.194 µM,4.63 µM,0.286 µM,> 100 µM,0.0531 µM,> 100 µM,0.291 µM,,0.28 µM,> 100 µM,0.107 µM,> 100 µM,0.116 µM,0.411 µM,35.4 µM,> 100 µM
C/C(=C\c1ccn(-c2ccc(N)c(F)c2)n1)[C@@H]1C[C@@H]2O[C@]2(C)CCC[C@H](C)[C@H](O)[C@@H](C)C(=O)C(C)(C)[C@@H](O)CC(=O)O1,0.0114 µM,> 50 µM,0.0121 µM,> 50 µM,0.0695 µM,> 50 µM,0.0138 µM,> 50 µM,0.0103 µM,> 50 µM,0.0155 µM,0.121 µM,0.0599 µM,> 50 µM,0.0118 µM,> 50 µM,0.012 µM,0.11 µM,0.0458 µM,> 50 µM
C=C(C)[C@@H]1CC[C@]2(C(=O)NCCNCCNCCN)CC[C@]3(C)[C@H](CC[C@@H]4[C@@]5(C)CC[C@H](O)C(C)(C)[C@@H]5CC[C@]43C)[C@@H]12,4.55 µM,78.2 µM,14.9 µM,28.6 µM,15.1 µM,37.1 µM,14.7 µM,32 µM,14.7 µM,34.4 µM,14.1 µM,30.1 µM,16.1 µM,32.5 µM,4.97 µM,21.4 µM,11.1 µM,23.7 µM,15.1 µM,33.1 µM
N#Cc1c(N)nc(N2CCOCC2)c(C#N)c1-c1ccc(Cl)cc1,34.5 µM,> 100 µM,29.2 µM,> 100 µM,17.5 µM,90.9 µM,73.5 µM,> 100 µM,> 100 µM,> 100 µM,75 µM,> 100 µM,14 µM,46.4 µM,42.6 µM,> 100 µM,49 µM,> 100 µM,40.8 µM,> 100 µM
Cn1c(=O)c(Oc2ccc(F)cc2F)cc2cnc(NC(CO)CO)nc21,> 25 µM,> 25 µM,> 25 µM,> 25 µM,> 25 µM,> 25 µM,> 25 µM,> 25 µM,> 25 µM,> 25 µM,> 25 µM,> 25 µM,> 25 µM,> 25 µM,> 25 µM,> 25 µM,> 25 µM,> 25 µM,> 25 µM,> 25 µM
Cc1ccc(/C=C2/SC(Nc3nc(-c4nc(NC5=NC(=O)/C(=C\c6ccc(C)cc6)S5)sc4C)c(C)s3)=NC2=O)cc1,2.44 µM,> 50 µM,0.287 µM,12.2 µM,1.36 µM,19.9 µM,0.895 µM,8.46 µM,0.714 µM,> 50 µM,0.531 µM,> 9.82 µM,7.29 µM,> 50 µM,1.37 µM,> 36.6 µM,0.379 µM,1.84 µM,1.04 µM,20.5 µM
O=C1/C(=C/c2ccc([N+](=O)[O-])o2)Oc2ccc(Br)cc21,2 µM,4.97 µM,1.82 µM,3.55 µM,1.8 µM,3.84 µM,6.76 µM,23.1 µM,1.69 µM,3.23 µM,9.31 µM,21.1 µM,1.94 µM,4.1 µM,18.5 µM,35.3 µM,1.89 µM,4.19 µM,2 µM,4.38 µM
COc1ccc(C/C(C)=C(\c2ccc(OCCN3CCOCC3)cc2)c2ccc(OC(=O)Cc3ccccc3)cc2)cc1,0.813 µM,8.27 µM,0.56 µM,1.03 µM,0.583 µM,1.26 µM,0.823 µM,3.3 µM,0.742 µM,1.8 µM,1.33 µM,20.4 µM,1.13 µM,5.03 µM,1.02 µM,11.2 µM,0.513 µM,0.977 µM,0.578 µM,1.09 µM
Cc1ccc2c(c1C)-c1c(ccc(C)c1C)C(=O)C2=O,,0.991 µM,,3.76 µM,,8.57 µM,,2.81 µM,,3.23 µM,,3.41 µM,,4.75 µM,,10.3 µM,,0.42 µM,,3.48 µM
Cc1nn(-c2ccccc2)c2c1CC(=O)Nc1ccccc1-2,0.112 µM,,0.431 µM,> 100 µM,0.578 µM,> 100 µM,0.357 µM,> 100 µM,0.152 µM,> 100 µM,0.355 µM,> 100 µM,0.397 µM,> 100 µM,0.764 µM,> 100 µM,0.173 µM,7.8 µM and 0.855 µM,0.273 µM,> 100 µM
